The assay has as its target T1, hYAK3 (Homo sapiens, UniProt O43781).
T1 construct: GST (N); His6 (C); made in house; host or cells: baculovirus expression system in Sf9 cells
T1 sequence (O43781 142-526): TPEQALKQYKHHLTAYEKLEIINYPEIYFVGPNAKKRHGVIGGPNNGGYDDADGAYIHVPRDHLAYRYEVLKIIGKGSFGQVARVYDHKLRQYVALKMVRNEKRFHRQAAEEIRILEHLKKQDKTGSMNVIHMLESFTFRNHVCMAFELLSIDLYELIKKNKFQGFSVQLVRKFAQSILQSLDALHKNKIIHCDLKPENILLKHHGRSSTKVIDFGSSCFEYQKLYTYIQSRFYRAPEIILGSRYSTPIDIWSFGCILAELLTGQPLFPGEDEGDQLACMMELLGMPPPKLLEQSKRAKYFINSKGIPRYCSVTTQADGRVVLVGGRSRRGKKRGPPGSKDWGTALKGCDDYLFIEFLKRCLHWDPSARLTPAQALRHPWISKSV
Nature of the assay: YAK3 Scintillation Proximity Assay using Ser164 of myelin basic protein as the phosphoacceptor (kinase assay of purified hYAK3). The class given is biochemical. Conditions: purified GST-hYak3-His6 4 nM; 1 μM ATP; 4 μM Ser164 peptide; 2 hours at room temperature; pIC50=-Log10(K). The procedure: Substrate phosphorylation assays were carried out as follows:
YAK3 Scintillation Proximity Assays Using Ser164 of Myelin Basic Protein as the Phosphoacceptor
The source of Ser164 substrate peptide The biotinylated Ser164, S164A peptide(LGGRDSRAGS*PMARRKK-ahx-Biotin-Amide), sequence derived from the C-terminus of bovine myelin basic protein (MBP) with […] substituted as Ala 162, was purchased from California Peptide Research Inc. (Napa, Calif.), and its purity was determined by HPLC. Phosphorylation occurs at position 164 (marked S* above). The calculated molecular mass of the peptide is 2166 dalton. Solid sample was dissolved at 10 mM in DMSO, aliquoted, and stored at −20 C until use. […]
Kinase assay of purified hYAK3: Assays were performed in 96 well (Costar, Catalog No. 3789) or 384 well plates (Costar, Catalog No. 3705). […] Compounds, titrated in DMSO, were evaluated at concentrations ranging from 50 μM to 0.2 nM. […]
The data for compound dose responses were plotted as % Inhibition, calculated with the data reduction formula 100*(1−[(U1−C2)/(C1−C2)]), versus concentration of compound, where U is the unknown value, C1 is the average control value obtained for DMSO, and C2 is the average control value obtained for 0.05M EDTA. […] The results for each compound were recorded as pIC50 calculated as follows: pIC50=−Log 10(K).

Structures are written as SMILES.

As usually defined, the IC50 is the concentration that gives 50% inhibition. Compound `O=C1N=C(Nc2cccnc2Cl)S/C1=C\c1ccc2ncccc2c1` [Example 1, (5Z)-2-[(2-Chloro-3-pyridinyl)amino]-5-(6-quinolinylmethylidene)-1,3-thiazol-4(5H)-one] had an IC50 of 1.58 nM. This lies in the single-digit nanomolar range.

(Values after patent US20090203692A1, “NOVEL CHEMICAL COMPOUNDS” (SMITHKLINE BEECHAM CORPORATION, priority 2005, published 2009).)
